Data reported in patent publication US4288341A, “Detergent product containing deodorant compositions” (priority 1978, dated 1981).

Target: T1, lipoxidase (EC1.13.1.13) (Glycine max, UniProt P08170)
T1 sequence (P08170 1-839): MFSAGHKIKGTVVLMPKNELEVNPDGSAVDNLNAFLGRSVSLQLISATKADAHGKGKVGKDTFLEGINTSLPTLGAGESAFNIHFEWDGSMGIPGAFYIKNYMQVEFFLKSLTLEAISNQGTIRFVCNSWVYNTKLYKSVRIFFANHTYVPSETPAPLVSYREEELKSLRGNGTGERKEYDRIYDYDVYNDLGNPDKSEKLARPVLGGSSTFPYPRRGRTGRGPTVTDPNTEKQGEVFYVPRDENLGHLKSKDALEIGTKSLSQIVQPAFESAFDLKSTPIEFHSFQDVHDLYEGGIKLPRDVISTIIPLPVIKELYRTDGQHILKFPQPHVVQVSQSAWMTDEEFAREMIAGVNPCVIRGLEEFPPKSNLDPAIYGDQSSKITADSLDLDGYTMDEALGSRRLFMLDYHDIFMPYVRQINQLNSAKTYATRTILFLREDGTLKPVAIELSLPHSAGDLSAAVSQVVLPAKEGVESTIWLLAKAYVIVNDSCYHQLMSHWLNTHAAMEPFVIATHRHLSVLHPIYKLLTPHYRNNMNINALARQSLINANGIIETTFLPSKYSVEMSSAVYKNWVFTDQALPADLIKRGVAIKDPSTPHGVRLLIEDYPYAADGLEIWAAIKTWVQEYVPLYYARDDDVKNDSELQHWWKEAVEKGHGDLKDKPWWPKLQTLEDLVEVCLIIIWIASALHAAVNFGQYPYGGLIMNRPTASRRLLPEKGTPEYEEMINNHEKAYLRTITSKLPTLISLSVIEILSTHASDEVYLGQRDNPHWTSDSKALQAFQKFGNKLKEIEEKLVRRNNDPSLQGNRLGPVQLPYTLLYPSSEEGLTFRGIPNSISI
Assay: Lipoxidase test: inhibition of the oxidation of linoleic acid by lipoxidase
Type: biochemical
Conditions: test substrate made with 0.5% by weight solution of material in ethanol; borate buffer pH 9.0; OD 234 nm

- LIC (lipoxidase-inhibiting capacity, % inhibition): 16%
Substance: Dimyrcetol
